For 19 compounds, IC50 results are on record in patent publication US12060349B2, “Glucosylceramide synthase inhibitors” (Genzyme Corporation, priority 2012, dated 2024).

By IC50 is commonly meant the concentration that gives 50% inhibition.

The test system of assay [1] is GM3 expression on the cell surface, B16 mouse melanoma cells. Nature of the assay: cell based phenotypic assay, cell surface GM3 by antibody mediated immunofluorescence, B16 (GM3 B16 IC50). The conditions noted are these: Mus musculus, B16 mouse melanoma cells; 50% inhibition of GM3 expression on the cell surface; read-out: GM3 B16 IC50. In a few lines: (§1)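 Both lines undergo the phenotypic GM3 assay, and viability is recorded from that same cell-based run.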

The subject of assay [2] is GM3 expression on the cell surface, C32 human melanoma cells. Nature of the assay: cell based phenotypic assay, cell surface GM3 by antibody mediated immunofluorescence, C32 (GM3 C32 IC50). The settings on record: Homo sapiens, C32 human melanoma cells; 50% inhibition of GM3 expression on the cell surface; read-out: GM3 C32 IC50. Summed up: as §1
The target in assay [3] is T1, glucosylceramide synthase (Homo sapiens, UniProt Q16739).
T1 construct: Microsomes were isolated from A375 human melanoma cells; endogenous in cells; host or cells: A375 human melanoma cells (microsomal fraction, 100,000 g pellet)
T1 sequence (Q16739 1-394): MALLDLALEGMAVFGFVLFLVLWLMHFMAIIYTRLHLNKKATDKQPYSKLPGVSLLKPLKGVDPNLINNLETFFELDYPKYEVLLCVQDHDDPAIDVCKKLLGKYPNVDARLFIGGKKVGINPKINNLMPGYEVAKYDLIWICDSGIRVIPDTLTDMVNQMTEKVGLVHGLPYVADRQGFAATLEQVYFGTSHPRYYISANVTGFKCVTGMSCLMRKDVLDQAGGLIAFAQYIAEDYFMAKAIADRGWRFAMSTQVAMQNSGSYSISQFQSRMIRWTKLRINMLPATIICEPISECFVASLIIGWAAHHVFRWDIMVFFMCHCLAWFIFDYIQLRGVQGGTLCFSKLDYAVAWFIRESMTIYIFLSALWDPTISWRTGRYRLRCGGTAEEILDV
Nature of the assay: microsomal assay measuring conversion of ceramide to glucosylceramide by HPLC (GCS IC50). It is filed as biochemical. The settings on record: concentration causing 50% inhibition of glucosylceramide synthase activity. Summed up:
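Microsomal preparation assayed for glucosylceramide synthase by direct HPLC measurement of ceramide conversion to glucosylceramide. GCS IC50 is the compound concentration giving 50% inhibition of enzyme activity.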

For another assay, the system named is B16 mouse melanoma cells. Nature of the assay: cell viability in the B16 cell-based assay (Viability, B16 IC50). The settings on record: Mus musculus, B16, B16 cells; concentration causing 50% cell death; values greater than 10 represent a lack of cell death; read-out: Viability, B16 IC50. Summed up: as §1
The next assay deals with C32 human melanoma cells. Nature of the assay: cell viability in the C32 cell-based assay (Viability, C32 IC50). The settings on record: Homo sapiens, C32, C32 cells; concentration causing 50% cell death; values greater than 10 represent a lack of cell death; read-out: Viability, C32 IC50. In a few lines:
as §1

Each structure is given as a SMILES string.

With `CC(C)c1cccc(N2CCN(C(=O)NC3(C)CCN4CCC3CC4)CC2)c1` (centres unmarked) [Example 28, 4-(3-Isopropylphenyl)-N-(4-methyl-1-azabicyclo[3.2.2]nonan-4-yl)piperazine-1-carboxamide], the half-inhibitory concentration (IC50) in assay [1] is 1440 nM; in assay [2], 86.6 nM; in assay [3], 1590 nM; with B16 mouse melanoma cells it was at least 10000 nM; in the assay on C32 human melanoma cells, 3160 nM.
For `CC1(NC(=O)N2CCN(c3cccc(C4CCCCC4)c3)CC2)CCN2CCC1CC2` (centres unmarked) [Example 29, 4-(3-Cyclohexylphenyl)-N-(4-methyl-1-azabicyclo[3.2.2]nonan-4-yl)piperazine-1-carboxamide] the same measures were 2660 nM, 38.2 nM, 309 nM, 7810 nM and 1000 nM.
On the same counts, the results for `CC1CN(c2cccc(-c3ccccc3)c2)CCN1C(=O)NC1(C)CCN2CCC1CC2` (centres unmarked) [Example 30, 4-([1,1′-Biphenyl]-3-yl)-2-methyl-N-(4-methyl-1-azabicyclo[3.2.2]nonan-4-yl)piperazine-1-carboxamide] are 864 nM, 63.9 nM, 376 nM, 7640 nM and 1000 nM.
For `CC1CN(C(=O)NC2(C)CCN3CCC2CC3)CCN1c1cccc(-c2ccccc2)c1` (centres unmarked) [Example 31, 4-([1,1′-Biphenyl]-3-yl)-3-methyl-N-(4-methyl-1-azabicyclo[3.2.2]nonan-4-yl)piperazine-1-carboxamide] the same measures were 70.7 nM, 1.51 nM, 4.06 nM, 7620 nM and 1000 nM.
For `CC1(NC(=O)C2CCN(c3cccc(-c4ccc(F)cc4)c3)CC2)CN2CCC1CC2` (centres unmarked) [Example 33, 1-(4′-Fluoro-[1,1′-biphenyl]-3-yl)-N-(3-methylquinuclidin-3-yl)piperidine-4-carboxamide], the half-inhibitory concentration (IC50) in assay [1] was found to be 237 nM; in assay [2], 5.02 nM; in assay [3], 22.1 nM; in the assay on B16 mouse melanoma cells it was 6910 nM; with C32 human melanoma cells, 1000 nM.
On the same counts, the results for `CC1(NC(=O)C2CCN(c3cccc(-c4ccc(F)cc4)c3)CC2)CCN2CCC1CC2` (centres unmarked) [Example 34, 1-(4′-Fluoro-[1,1′-biphenyl]-3-yl)-N-(4-methyl-1-azabicyclo[3.2.2]nonan-4-yl)piperidine-4-carboxamide] are 79 nM, 0.872 nM, 4.78 nM, 4720 nM and 316 nM.
On the same counts, the results for `CC1(NC(=O)C2CCN(c3cccc(-c4ccccc4)c3)CC2)CN2CCC1CC2` (centres unmarked) [Example 35, 1-([1,1′-Biphenyl]-3-yl)-N-(3-methylquinuclidin-3-yl)piperidine-4-carboxamide] are 149 nM, 7.11 nM, 49.6 nM, 7310 nM and 1000 nM.
For `CC1(NC(=O)C2CCN(c3cccc(-c4ccccc4)c3)CC2)CCN2CCC1CC2` (centres unmarked) [Example 36, 1-([1,1′-Biphenyl]-3-yl)-N-(4-methyl-1-azabicyclo[3.2.2]nonan-4-yl)piperidine-4-carboxamide] the same measures were 136 nM, 2.5 nM, 10.3 nM, 7570 nM and 1000 nM.
As to `CC1(NC(=O)C2CCN(c3ccc(-c4ccccc4)cc3)CC2)CN2CCC1CC2` (centres unmarked) [Example 37, 1-([1,1′-Biphenyl]-4-yl)-N-(3-methylquinuclidin-3-yl)piperidine-4-carboxamide], the IC50 in assay [1] came out at 1800 nM; in assay [2], 131 nM; in assay [3], 1550 nM; in the assay on B16 mouse melanoma cells it was 7050 nM; with C32 human melanoma cells, 6900 nM.
Take `CC1(NC(=O)C2CCN(c3ccc(-c4ccccc4)cc3)CC2)CCN2CCC1CC2` (centres unmarked) [Example 38, 1-([1,1′-Biphenyl]-4-yl)-N-(4-methyl-1-azabicyclo[3.2.2]nonan-4-yl)piperidine-4-carboxamide]: the IC50 in assay [1] was found to be 2600 nM; in assay [2], 89.4 nM; in assay [3] it was 1050 nM; with B16 mouse melanoma cells, 6620 nM; with C32 human melanoma cells it was 6740 nM.
For `CC1(NC(=O)C2CCN(c3cccc(-c4ncccn4)c3)CC2)CCN2CCC1CC2` (centres unmarked) [Example 39, N-(4-Methyl-1-azabicyclo[3.2.2]nonan-4-yl)-1-(3-(pyrimidin-2-yl)phenyl)piperidine-4-carboxamide] the same measures were 7240 nM, 126 nM, 1800 nM, at least 10000 nM and 3160 nM.
For `CC1(NC(=O)C2CCN(c3cccc(-c4cncnc4)c3)CC2)CCN2CCC1CC2` (centres unmarked) [Example 40, N-(4-Methyl-1-azabicyclo[3.2.2]nonan-4-yl)-1-(3-(pyrimidin-5-yl)phenyl)piperidine-4-carboxamide] the same measures were 5500 nM, 15.2 nM, 291 nM, 71.3 nM and 1000 nM.
Consider `CC1(NC(=O)C2CCN(c3nccc(-c4ccc(F)cc4)n3)CC2)CCN2CCC1CC2` (centres unmarked) [Example 41, 1-(4-(4-Fluorophenyl)pyrimidin-2-yl)-N-(4-methyl-1-azabicyclo[3.2.2]nonan-4-yl)piperidine-4-carboxamide], for which the half-maximal inhibitory concentration (IC50) in assay [1] was 9.7 nM; in assay [2], 0.124 nM; in assay [3], 1.14 nM; with B16 mouse melanoma cells, 6440 nM; with C32 human melanoma cells it was 20 nM.
On the same counts, the results for `CC1(NC(=O)C2CCN(c3nccc(-c4ccc(F)cc4)n3)CC2)CN2CCC1CC2` (centres unmarked) [Example 44, 1-(4-(4-Fluorophenyl)pyrimidin-2-yl)-N-(3-methylquinuclidin-3-yl)piperidine-4-carboxamide] are 49.9 nM, 0.205 nM, 1.24 nM, 9270 nM and 316 nM.
For `O=C(NC1CN2CCC1CC2)C1CCN(c2nccc(-c3ccc(F)cc3)n2)CC1` (centres unmarked) [Example 45, 1-(4-(4-Fluorophenyl)pyrimidin-2-yl)-N-(quinuclidin-3-yl)piperidine-4-carboxamide] the same measures were 125 nM, 0.457 nM, 2.67 nM, at least 10000 nM and 1000 nM.
For `CC1(NC(=O)C2CCN(c3cncc(-c4ccc(F)cc4)n3)CC2)CCN2CCC1CC2` (centres unmarked) [Example 46, 1-(6-(4-Fluorophenyl)pyrazin-2-yl)-N-(4-methyl-1-azabicyclo[3.2.2]nonan-4-yl)piperidine-4-carboxamide] the same measures were 76.6 nM, 0.425 nM, 2.79 nM, 7310 nM and 316 nM.
Consider `CC1(NC(=O)C2CCN(c3cncc(-c4ccc(F)cc4)n3)CC2)CN2CCC1CC2` (centres unmarked) [Example 49, 1-(6-(4-Fluorophenyl)pyrazin-2-yl)-N-(3-methylquinuclidin-3-yl)piperidine-4-carboxamide], for which the IC50 in assay [1] came to 145 nM; in assay [2] it was 0.822 nM; in assay [3], 4.1 nM; with B16 mouse melanoma cells, 8160 nM; in the assay on C32 human melanoma cells it was 1000 nM.
Turning to `CC1(NC(=O)C2CCN(c3ncnc(-c4ccc(F)cc4)n3)CC2)CCN2CCC1CC2` (centres unmarked) [Example 50, 1-(4-(4-Fluorophenyl)-1,3,5-triazin-2-yl)-N-(4-methyl-1-azabicyclo[3.2.2]nonan-4-yl)piperidine-4-carboxamide], the half-inhibitory concentration (IC50) in assay [1] is 162 nM; in assay [2] it was 0.708 nM; in assay [3], 32.5 nM; in the assay on B16 mouse melanoma cells it was at least 10000 nM; in the assay with C32 human melanoma cells, 3160 nM.
In the case of `CC1(NC(=O)C2CCN(c3ccnc(-c4ccc(F)cc4)n3)CC2)CCN2CCC1CC2` (centres unmarked) [Example 51, 1-(2-(4-Fluorophenyl)pyrimidin-4-yl)-N-(4-methyl-1-azabicyclo[3.2.2]nonan-4-yl)piperidine-4-carboxamide], the IC50 in assay [1] came to 335 nM; in assay [2], 3.88 nM; in assay [3] it was 46.6 nM; in the assay with B16 mouse melanoma cells, 8260 nM; in the assay with C32 human melanoma cells it was 3160 nM.
